For assay [1], the system named is HCT-116. In words: Induction of autophagy in human HCT116 cells transfected with shRNA against p53 assessed as LC3-II accumulation at 10 uM after 24 hrs by Western blotting analysis. Type of assay: functional, cell-based.
Assay [2] has as its system HCT-116. In words: Induction of cell cycle arrest in human HCT116 cells assessed as cells accumulation at G2/M phase at 10 uM after 24 hrs by propidium iodide staining-based flow cytometry (reference value: 19.2 +/- 0.3%). The format is functional.
In assay [3] the test system is HCT-116. As to the kind of experiment: Induction of autophagy in human HCT116 cells assessed as autophagic vacuoles at 10 uM after 24 hrs by monodansylcadaverine staining assay. Type of assay: functional, cell-based.
The subject of assay [4] is HCT-116. In words: Induction of cell cycle arrest in human HCT116 cells assessed as cells accumulation at G0/G1 phase at 10 uM after 24 hrs by propidium iodide staining-based flow cytometry (reference value: 31.9 +/- 2.3%). Type of assay: functional. Background: In flow cytometry, cells or beads pass a laser one at a time.
The subject of assay [5] is HCT-116. As to the kind of experiment: Antiproliferative activity against human HCT116 cells transfected with shRNA against p53 at 10 uM after 24 hrs by CCK8 assay relative to control. The format is functional, cell-based. (In general: Tetrazolium assays rely on reduction of a dye to a coloured formazan, in cell work by metabolically active cells.)
Assay [6] deals with Mitogen-activated protein kinase 9 (Homo sapiens) (UniProt P45984). As to the kind of experiment: Activation of JNK2 in human HCT116 cells assessed as phosphorylation at 10 uM after 24 hrs by Western blotting analysis. The format is cell-based. The settings on record: HCT-116.
Assay [7] relates to HCT-116. In words: Induction of cell cycle arrest in human HCT116 cells assessed as cells accumulation at S phase at 10 uM after 24 hrs by propidium iodide staining-based flow cytometry (reference value: 48.8 +/- 1.5%). The format is functional.
Assay [8] concerns HCT-116. In words: Antiproliferative activity against human HCT116 cells assessed as cell viability after 24 hrs by WST8 assay. The format is functional, cell-based.
Assay [9] concerns the target Mitogen-activated protein kinase 9 (Homo sapiens) (UniProt P45984). In words: Activation of JNK2 in human HCT116 cells assessed as phosphorylation at 10 uM after 24 hrs by Western blotting analysis in presence of 30 uM PFT-alpha p53 antagonist. The format is cell-based. The settings on record: HCT-116.
Assay [10] concerns HCT-116. As to the kind of experiment: Induction of autophagy in human HCT116 cells assessed as increase in LC3-II accumulation at 10 uM upto 20 hrs by immunoblot analysis. Type of assay: functional, cell-based. On the technique in general: A western blot detects proteins with antibodies after separation by electrophoresis.
In assay [11] the test system is HCT-116. As to the kind of experiment: Induction of autophagy in human HCT116 cells assessed as increase in LC3-II accumulation at 10 uM upto 20 hrs by Confocal imaging analysis. Type of assay: functional, cell-based.
Assay [12] deals with HCT-116. As to the kind of experiment: Induction of autophagy in human HCT116 cells assessed as increase in LC3-II dots per cell at 10 uM upto 20 hrs by Confocal imaging analysis relative to vehicle treated control (reference value: 0.8/cell). Type of assay: functional.
Assay [13] has as its system HCT-116. In words: Antiproliferative activity against human HCT116 cells transfected with shRNA against p53 at 10 uM after 24 hrs by CCK8 assay in presence of exogenous p53 gene. Type of assay: functional, cell-based.
The subject of assay [14] is HCT-116. As to the kind of experiment: Induction of autophagy in human HCT116 cells assessed as autophagic vacuoles at 10 uM after 24 hrs by monodansylcadaverine staining assay in presence of Bafilomycin A1. Type of assay: functional, cell-based.
For assay [15], the system named is HCT-116. In words: Antiproliferative activity against human HCT116 cells at 10 uM upto 20 hrs by CCK8 assay relative to control in presence of 20 uM SP600125 reversible JNK inhibitor. Type of assay: functional, cell-based.
Assay [16] deals with Mitogen-activated protein kinase 8 (Homo sapiens) (UniProt P45983). As to the kind of experiment: Activation of JNK1 in human HCT116 cells assessed as phosphorylation at 10 uM after 24 hrs by Western blotting analysis. The format is cell-based. The settings on record: HCT-116.
Assay [17] has the same target. In words: Activation of JNK1 in human HCT116 cells transfected with shRNA against p53 assessed as phosphorylation at 10 uM after 24 hrs by Western blotting analysis. Type of assay: cell-based. The conditions noted are these: HCT-116.
The test system of assay [18] is HCT-116. In words: Induction of autophagy in human HCT116 cells assessed as LC3-II accumulation at 10 uM upto 20 hrs by Western blotting analysis in presence of 30 uM PFT-alpha p53 antagonist. Type of assay: functional, cell-based.
Assay [19] has as its system HCT-116. In words: Induction of autophagy in human HCT116 cells assessed as LC3-II accumulation at 10 uM upto 20 hrs by Western blotting analysis in presence of 20 uM SP600125 reversible JNK inhibitor. Type of assay: functional, cell-based.
For assay [20], the target named is Mitogen-activated protein kinase 9 (Homo sapiens) (UniProt P45984). In words: Activation of JNK2 in human HCT116 cells transfected with shRNA against p53 assessed as phosphorylation at 10 uM after 24 hrs by Western blotting analysis. The format is cell-based. The settings on record: HCT-116.
The test system of assay [21] is HCT-116. In words: Antiproliferative activity against human HCT116 cells assessed as cell viability at 10 uM after 24 hrs by WST8 assay relative to vehicle treated control. The settings on record: HCT-116, 24 h. Type of assay: functional.
For assay [22], the target named is Mitogen-activated protein kinase 8 (Homo sapiens) (UniProt P45983). As to the kind of experiment: Activation of JNK1 in human HCT116 cells assessed as phosphorylation at 10 uM after 24 hrs by Western blotting analysis in presence of 30 uM PFT-alpha p53 antagonist. The format is cell-based. The settings on record: HCT-116.

From ChEMBL document CHEMBL3580649, “Cardamonin induces autophagy and an antiproliferative effect through JNK activation in human colorectal carcinoma HCT116 cells” (2015) come the findings set out here.

SMILES strings stand for the structures. Active and inactive are the calls of the source. No cut-off for these calls is given here.

Sequence of Mitogen-activated protein kinase 8 (Homo sapiens) (P45983 whole entry): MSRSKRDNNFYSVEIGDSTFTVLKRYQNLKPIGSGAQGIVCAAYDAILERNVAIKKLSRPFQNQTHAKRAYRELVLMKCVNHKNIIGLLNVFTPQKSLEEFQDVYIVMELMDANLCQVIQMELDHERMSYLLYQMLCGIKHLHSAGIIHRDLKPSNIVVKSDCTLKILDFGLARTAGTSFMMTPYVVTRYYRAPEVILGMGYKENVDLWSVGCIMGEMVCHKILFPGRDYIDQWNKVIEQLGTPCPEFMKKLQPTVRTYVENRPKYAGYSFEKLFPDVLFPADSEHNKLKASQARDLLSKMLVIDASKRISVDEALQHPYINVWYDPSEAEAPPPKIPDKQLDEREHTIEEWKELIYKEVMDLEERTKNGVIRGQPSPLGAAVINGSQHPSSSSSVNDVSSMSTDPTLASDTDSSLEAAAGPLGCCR
Sequence of Mitogen-activated protein kinase 9 (Homo sapiens) (P45984 whole entry, looked up): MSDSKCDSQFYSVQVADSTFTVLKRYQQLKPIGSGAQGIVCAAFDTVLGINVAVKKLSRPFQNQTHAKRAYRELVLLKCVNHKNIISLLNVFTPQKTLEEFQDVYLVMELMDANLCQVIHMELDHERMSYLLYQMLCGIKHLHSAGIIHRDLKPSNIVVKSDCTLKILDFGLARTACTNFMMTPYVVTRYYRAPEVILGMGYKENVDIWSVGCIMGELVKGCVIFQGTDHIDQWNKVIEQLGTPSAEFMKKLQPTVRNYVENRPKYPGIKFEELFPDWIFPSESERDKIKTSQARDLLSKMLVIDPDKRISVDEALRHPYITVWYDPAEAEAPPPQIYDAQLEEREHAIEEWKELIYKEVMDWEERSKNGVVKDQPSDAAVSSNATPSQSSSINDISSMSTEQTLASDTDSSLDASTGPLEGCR

Usually inhibition stands for the relative decrease from the control value, in per cent. Turning to `COc1cc(O)cc(O)c1C(=O)/C=C/c1ccccc1` [CARDAMOMIN], the outcome in assay [1], in assay [9], in assay [14], in assay [15], in assay [17] and in assay [18] was inactive. Besides, the outcome in assay [19], in assay [20] and in [22] was inactive. Besides, the Activity in assay [2] is on record as 25%; in [4], 28.4%; in [7] it was 46.6%; in assay [12], 3.4. The outcome in assay [3], in [6], in [10], in [11] and in [16] was Active. For the same molecule, the inhibition entry in assay [5] is “inactive”. In assay [8], the inhibition entry was “Dose-dependent effect”. Besides, in [13], the inhibition entry is “Active”. In addition, the inhibition at 10 µM in [21] stood at 37%.
